Assay results from patent publication US8524498B2, “Methods and compositions for homologous recombination in human cells” (The General Hospital Corporation, priority 2009, dated 2013).

Tests used:
[1] = test system: hLR5 cells; experiment: Conversion of hLR5 cells into stable pluripotent LD-hiPS colonies; format: cell-based, human; conditions: for enhancement of hLR5 conversion: titration curve of GSK3β inhibitor alone or in combination with LIF and/or PD98059, even at high concentration (not shown); for conversion frequency of hLR5 cells into LD-hiPS cells: LIF and MEK inhibitor PD98059 added during the conversion process, about 0.01% without; for increase in conversion frequency compared to FGF alone: LIF and PD98059 (50 μM) in combination; for hLR5 conversion rate: agent added alone to bFGF after doxycycline withdrawal, PD98059 50 μM
Description: FIG. 9: Conversion rate of hLR5 cells into LD-hi PS cells is influenced by growth factors and inhibition of MEK signaling. Bar graph indicates the average number of stable pluripotent LD-hiPS colonies obtained after plating of 100.000 hLR5 cells in the presence of the indicated combinations of growth factors and MEK inhibitor (PD98059, 50 μM).
FIG. 4A outlines the procedure of converting hLR5 cells into stable iPS cells. Clonal hLR5 cell lines were plated at a density of 5000 cells per cm^2 in media containing human LIF and doxycycline to support the continued expression of ectopic reprogramming factors. The next day, doxycycline was withdrawn from the hLR5 cultures and cells were further maintained in the presence of bFGF alone (FIG. 4A). […] These cells are referred to herein as hLR5-derived human iPS cells (LD-hiPS) to signify their prior hLR5 status. The conversion frequency of hLR5 cells into LD-hiPS cells was low, approximately 0.01%, yet similar to the conversion of murine metastable iPS cells of the NOD strain into stable EpiSC-like iPS cells (Hanna et al., 2009). […] Whether LIF and/or small molecule inhibitors could positively influence the conversion of hLR5 cells to a stable pluripotent state was analyzed.

[2] = test system: human pluripotent stem cells; experiment: Culture of human pluripotent stem cells with pharmacological inhibitors: passaging, proliferation, colony morphology; format: cell-based; conditions: for colony morphology of human pluripotent stem cells (ES cells and iPS cells): CHIR99021 (3 μM) together with PD98059 (50 μM)
Source text: FIGS. 12A-12C: Inhibition of PKA or GSK3β signaling enhances human pluripotent stem cell proliferation rate and improves the introduction of transgenes by homologous recombination. 12A. Cell proliferation curve. Cell numbers of human iPS cells were counted at the indicated time intervals. Plotted is the cumulative cell number over 37 days of culture. All cells were maintained in standard human iPS culture conditions (e.g., Maherali et al. Cell Stem Cell 2008, 3:340-345) with indicated additions: DMSO ([…], 0.1%); CHIR99021 (GSK3β inhibitor, 3 μM), Kenpaullone (GSK3β inhibitor, 5 μM); BIO (GSK3β inhibitor, 15 μM) and SB216763 (GSK3β inhibitor, 1 μM). 12B Colony morphology of human pluripotent stem cells cultured in the presence of the GSK3β inhibitor (3 μM) and PD98059 (50 μM). 12C Influence of signaling inhibitors on the introduction of a 10 kb transgene construct carrying a puromycin selection cassette. Puromycin selection was applied at 0.25 μg/mL 48 hours after electroporation of human iPS cells with 20 μg of the linearized plasmid.
It was therefore sought to explore if small molecule inhibitors can affect human pluripotent stem cell colony morphology, proliferation and the ability to introduce transgenes using homologous recombination. Human pluripotent stem cells were maintained in standard medium (DMEM/F12 containing 20% knockout serum replacement, 2 mM L-Glutamine, 1% non-essential amino acids, 100 U of penicillin, 100 μg streptomycin, 0.1 mM beta-mercaptoethanol and 5 ng/mL bFGF, with or without pharmacological inhibitors.
The inhibition of GSK3β can increase the frequency of homologous recombination in both iPS cells derived in the presence of the five reprogramming factors as described above, and in human ES cells. The human ES cells acquired a mouse ES cell-like morphology, became capable of single cell expansion, and became capable of trypsin passaging when incubated with a GSK3β inhibitor. The effect and the increase in homologous recombination could be facilitated by co-addition of MEK inhibitor(s).

[3] = test system: hLR5 cells; experiment: SSEA1 cell surface marker expression by flow cytometry on hLR5 cells cultured with pathway inhibitors; format: cell-based, human; conditions: flow cytometry after 1 week culture in hLR5 media with inhibitor; Jak-inhibitor I 0.6 μM, PD98059 50 μM, PD1 84352 0.8 μM, PD0325901 1 μM
Source text: (§1) FIGS. 2A-2F: LIF-responsiveness of hLR5 cells. 2A Western blot analysis of STAT3 phosphorylation in two independent hLR5 clones, with or without LIF-stimulation as indicated; 2B Immunostaining of STAT3 subcellular localization in hLR5 cells before (top panel) or after (bottom panel) LIF stimulation. Note the translocation of STAT3 from the cytoplasm (top panel) to the nucleus (bottom panel). Cell nuclei were visualized with DAPI; 2C Gene expression analysis of downstream target genes of the JAK/STAT signaling pathway in three hLR5 clones as well as human ES cell lines and conventional human iPS cell lines; 2D Flow cytometry analysis of SSEA 1 surface marker on hLR5 cells upon LIF removal. Lines indicate (i) LIF control, (ii) LIF substitution with bFGF, and (iii) no added growth factor; 2E Colony morphology of the hLR5 cells before (top panel) and after LIF substitution with bFGF; 2F Flow cytometry analysis of SSEA1 cell surface marker expression on hLR5 cells in the presence of small molecule inhibitors of the JAK/STAT and MEK/ERK signaling pathways. hLR5 cells were maintained in hLR5 media for 1 week in the presence of inhibitors. Grey shaded area: Jak-inhibitor, lines: MEK inhibitors (PD9805, PD1 84352 and PD0325901, as indicated). A line indicating a control (i.e., lacking inhibitor) is also present.
Upon removal or substitution of LIF from the hLR5 culture media, SSEA1 expression waned (FIG. 2D). In addition, a change in colony morphology was observed following LIF withdrawal (FIG. 2E). In murine ES cells, LIF activates the JAK/STAT3 and the RAS/MEK/MAPK signaling pathways, which have opposing roles in murine ES cell maintenance and differentiation. […] Specific inhibitors of JAK/STAT signaling or the MAPK/MEK signaling pathway were used to examine the relative role of these pathways in hLR5 cells. SSEA1 cell surface marker expression was examined by flow cytometry upon culture of hLR5 cells in the presence of specific inhibitors for 1 week.
Cells were collected by trypsinization and resuspended in ice-cold RPMI+0.5% FBS. Cells were incubated with the antibodies against the indicated surface antigens for 30 min at 4° C. The following antibodies were used for cell surface marker profiling: SSEA 1 (BD BIOSCIENCES™), TRA-1-81, TRA-1-60, SSEA3 and SSEA4 (MILLIPORE™). Cells were washed twice with RPMI/0.5% FBS and incubated with the relevant fluorophore-conjugated secondary antibody (BD BIOSCIENCES™) for 30 min at 4° C. Cells were washed twice with RPMI/0.5% FBS, resuspended in RPMI/0.5% FBS and analyzed on a BECTON-DICKINSON FACSCALIBUR™ cell analyzer.

[4] = test system: JAK-STAT signaling pathway; experiment: LIF stimulation of hLR5 cells: JAK-STAT pathway activation (Western blot, STAT3 immunostaining, gene expression); format: cell-based, human
Source text: as §1, with “present. […]” for “present.”

Cc1c[nH]c(-c2cnc(NCCNc3ccc(C#N)cn3)nc2-c2ccc(Cl)cc2Cl)n1 [CHIR99021]
enhancement of hLR5 conversion [1]: did not enhance hLR5 conversion | colony morphology of human pluripotent stem cells (ES cells and iPS cells) [2]: adopted the characteristic tight dome-shaped morphology of murine ES cells

O=C(NOC[C@H](O)CO)c1ccc(F)c(F)c1Nc1ccc(I)cc1F [PD0325901]
expression of SSEA1 on hLR5 cells [3]: did not affect cell surface marker expression

O=C1Cc2c([nH]c3ccc(Br)cc23)-c2ccccc2N1 [Kenpaullone]
enhancement of hLR5 conversion [1]: did not enhance hLR5 conversion

O=C(NOCC1CC1)c1ccc(F)c(F)c1Nc1ccc(I)cc1Cl [PD1 84352]
expression of SSEA1 on hLR5 cells [3]: did not affect cell surface marker expression

LIF: human LIF growth factor activating JAK-STAT signaling
conversion frequency of hLR5 cells into LD-hiPS cells [1]: ~0.1% | increase in conversion frequency compared to FGF alone [1]: ~8 fold | hLR5 conversion rate [1]: slight increase | STAT3 nuclear translocation in hLR5 cells ([4]; 15 minute stimulation with human LIF, immunofluorescence): rapid STAT3 nuclear translocation | STAT3 phosphorylation in hLR5 cells ([4]; LIF stimulation, Western blot): robustly induces STAT3 phosphorylation

COc1cccc(-c2cc(=O)c3ccccc3o2)c1N [PD98059]
conversion frequency of hLR5 cells into LD-hiPS cells [1]: ~0.1% | increase in conversion frequency compared to FGF alone [1]: ~8 fold | hLR5 conversion rate [1]: slight increase | colony morphology of human pluripotent stem cells (ES cells and iPS cells) [2]: adopted the characteristic tight dome-shaped morphology of murine ES cells | expression of SSEA1 on hLR5 cells [3]: did not affect cell surface marker expression

Jak-inhibitor I
expression of SSEA1 on hLR5 cells [3]: marked decrease

C[S+](C)[O-] [DMSO]
trypsin passaging of human pluripotent stem cells ([2]; standard medium with inhibitor, DMSO 0.1%): allowed trypsin passaging | pluripotent stem cell proliferation rate ([2]; standard medium with inhibitor, DMSO 0.1%, cumulative cell number over 37 days): enhanced the pluripotent stem cell proliferation rate
